# Data as given in patent US20250206729A1, “DUAL RAF AND TUBULIN INHIBITORS AND METHODS OF USE THEREOF” (Deciphera Pharmaceuticals, LLC, priority 2023, published 2025).
# Columns and labels:
# [1] = molecular target: T1, B-Raf kinase (SEQ ID NO: 1) (Homo sapiens, UniProt P15056); test: Biochemical assay for B-Raf (coupled pyruvate kinase/lactate dehydrogenase); conditions: 1 mM ATP; read-out: BRAF (inhibition of biochemical activity, IC50)
# T1 construct: GST (N); purchased Sigma
# MiaPaca-2 cells = test: MiaPaca-2 cell proliferation assay; format: cell-based; conditions: Homo sapiens, MIA PaCa-2; 67-72 h incubation, resazurin; read-out: MiaPaca-2 (inhibition of cell proliferation, IC50)
# Protocol: Miapaca-2 cells (catalog #CRL-1420) are obtained from the American Type Culture Collect (ATTC, Manassas, VA). Briefly, cells were grown in DMEM supplemented with 10% characterized fetal bovine serum (Invitrogen, Carlsbad, CA), 2.5% New Zealand sourced horse serum and 1% Penicillin/Streptomycin/L-Glutamine at 37° C., 5% CO2, and 95% humidity. Cells are expanded until reaching 70-95% confluency at which point they are sub-cultured or harvested for assay use. A serial dilution of test compound is dispensed into a 384-well black clear bottom plate in triplicate. Seven hundred fifty cells are added per well in 50 μL complete growth medium in the 384-well plate. Plates are incubated for 67-72 h at 37° C., 5% CO2, and 95% humidity. At the end of the incubation, 10 μL of a 440 μM solution of resazurin (Sigma, St. Louis, MO) in PBS is added to each well of the plate and plates are incubated for an additional 5-6 h at 37° C., 5% CO2, and 95% humidity. Plates are read on a Synergy2 or equivalent reader (Biotek, Winooski VT) using an excitation of 540 nm and an emission of 600 nm. Data is analyzed using Prism software (GraphPad, San Diego, CA) to calculate IC50 values.
# Pa16c cells = test: Pa16c cell proliferation assay; format: cell-based; conditions: 67 to 72 h incubation, resazurin; read-out: Pa16c (inhibition of cell proliferation, IC50)
# Protocol: Pa16c cells are obtained from Dr. Channing Der, University of North Carolina at Chapel Hill. Briefly, cells are grown in Dulbecco's Modified Eagle Medium supplemented with 10% characterized fetal bovine serum (Invitrogen, Carlsbad, CA) and 1% Penicillin/Streptomycin/L-Glutamine at 37° C., 5% CO2, and 95% humidity. Cells are expanded until reaching 70-95% confluency at which point they are sub-cultured or harvested for assay use. A serial dilution of test compound is dispensed into a 384-well black clear bottom plate in triplicate. 750 cells are added per well in 50 μL complete growth medium in the 384-well plate. Plates are incubated for 67 to 72 h at 37° C., 5% CO2, and 95% humidity. At the end of the incubation, 40 μL of a […] solution of resazurin (Sigma, St. Louis, MO) in PBS is added to each well of the plate and plates are incubated for an additional 18 to 24 h at 37° C., 5% CO2, and 95% humidity. Plates are read on a Synergy2 or equivalent reader (Biotek, Winooski, VT) using an excitation of 540 nm and an emission of 600 nm. Data is analyzed using Prism software (Graphpad, San Diego, CA) to calculate IC50 values.
# HCT-116 cells = test: HCT-116 cell proliferation assay; format: cell-based; conditions: Homo sapiens, HCT-116; 67 to 72 h incubation, resazurin; read-out: HCT-116 (inhibition of cell proliferation, IC50)
# Protocol: HCT-116 cells (catalog #CCL-247) are obtained from the American Type Culture Collect (ATCC, Manassas, VA). Briefly, cells are grown in McCoy's 5A supplemented with 10% characterized fetal bovine serum (Invitrogen, Carlsbad, CA) and 1% Penicillin/Streptomycin/L-Glutamine at 37° C., 5% CO2, and 95% humidity. Cells are expanded until reaching 70-95% confluency at which point they are sub-cultured or harvested for assay use. A serial dilution of test compound is dispensed into a 384-well black clear bottom plate in triplicate. 375 cells are added per well in 50 μL complete growth medium in the 384-well plate. Plates are incubated for 67 to 72 h at 37° C., 5% CO2, and 95% humidity. At the end of the incubation, 40 μL of a […] solution of resazurin (Sigma, St. Louis, MO) in PBS is added to each well of the plate and plates are incubated for an additional 4 to 5 h at 37° C., 5% CO2, and 95% humidity. Plates are read on a Synergy2 or equivalent reader (Biotek, Winooski, VT) using an excitation of 540 nm and an emission of 600 nm. Data is analyzed using Prism software (Graphpad, San Diego, CA) to calculate IC50 values.
# HPAF-II cells = test: HPAF-II cell proliferation assay; format: cell-based; conditions: Homo sapiens, HPAF-II; 115 to 120 h incubation, resazurin; read-out: HPAF-II (inhibition of cell proliferation, IC50)
# Protocol: HPAF-II cells (catalog #CRL-1997) are obtained from the American Type Culture Collect (ATCC, Manassas, VA). Briefly, cells are grown in Minimum Essential Media supplemented with 10% characterized fetal bovine serum (Invitrogen, Carlsbad, CA) and 1% Penicillin/Streptomycin/L-Glutamine at 37° C., 5% CO2, and 95% humidity. Cells are expanded until reaching 70-95% confluency at which point they are sub-cultured or harvested for assay use. A serial dilution of test compound is dispensed into a 384-well black clear bottom plate in triplicate. 750 cells are added per well in 50 μL complete growth medium in the 384-well plate. Plates are incubated for 115 to 120 h at 37° C., 5% CO2, and 95% humidity. At the end of the incubation, 40 μL of a […] solution of resazurin (Sigma, St. Louis, MO) in PBS is added to each well of the plate and plates are incubated for an additional 18 to 24 h at 37° C., 5% CO2, and 95% humidity. Plates are read on a Synergy2 or equivalent reader (Biotek, Winooski, VT) using an excitation of 540 nm and an emission of 600 nm. Data is analyzed using Prism software (Graphpad, San Diego, CA) to calculate IC50 values.
# [2] = molecular target: T2, C-Raf kinase (SEQ ID NO: 2) (Homo sapiens, UniProt P04049, Y340D/Y341D); test: Biochemical assay for C-Raf (coupled pyruvate kinase/lactate dehydrogenase); conditions: 1 mM ATP; read-out: CRAF (inhibition of biochemical activity, IC50)
# T2 construct: C-Raf residues 306-end; Y340D, Y341D with N-; GST (N); purchased Sigma
# T2 sequence (P04049 307-648 Y340D/Y341D): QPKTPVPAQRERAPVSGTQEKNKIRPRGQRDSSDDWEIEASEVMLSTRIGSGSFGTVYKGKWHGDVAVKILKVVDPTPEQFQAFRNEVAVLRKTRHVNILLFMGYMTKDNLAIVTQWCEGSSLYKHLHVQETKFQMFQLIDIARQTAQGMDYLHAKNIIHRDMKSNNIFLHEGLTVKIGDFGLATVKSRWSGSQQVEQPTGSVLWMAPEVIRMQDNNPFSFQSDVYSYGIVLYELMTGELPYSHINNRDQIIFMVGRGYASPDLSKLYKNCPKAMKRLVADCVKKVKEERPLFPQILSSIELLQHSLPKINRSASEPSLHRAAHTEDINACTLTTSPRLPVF
# T1 sequence (P15056 416-766): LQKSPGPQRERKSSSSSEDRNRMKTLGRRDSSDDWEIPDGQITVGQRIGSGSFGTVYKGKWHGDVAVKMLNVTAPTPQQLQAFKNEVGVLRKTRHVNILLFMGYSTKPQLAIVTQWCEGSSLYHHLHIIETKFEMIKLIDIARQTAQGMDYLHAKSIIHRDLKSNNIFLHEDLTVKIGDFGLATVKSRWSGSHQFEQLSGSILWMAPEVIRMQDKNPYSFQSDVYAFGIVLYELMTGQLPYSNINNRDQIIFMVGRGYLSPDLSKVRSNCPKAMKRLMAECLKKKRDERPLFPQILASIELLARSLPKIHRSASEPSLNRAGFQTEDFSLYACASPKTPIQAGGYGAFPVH
IC50 [1] [nM],IC50 (MiaPaca-2 cells) [nM],IC50 (HCT-116 cells) [nM],IC50 [2] [nM],SMILES,IC50 (Pa16c cells) [nM],IC50 (HPAF-II cells) [nM]
< 100,< 100,< 100,< 100,Cc1ccc(NC(=O)c2cc(C(C)(F)F)cnn2)cc1-c1cc(OCCO)nc(N2CCOCC2)c1 [Example 63],< 100,< 100
100 to 500,500 to 1000,100 to 500,< 100,Cc1ccc(NC(=O)c2cc(C3CC3)cnn2)cc1-c1cccc(N2CCOCC2)c1 [Example 46],100 to 500,100 to 500
< 100,< 100,< 100,< 100,CNc1cc(-c2cc(NC(=O)c3cc(C(F)(F)F)cnn3)ccc2C)cc(N2CCOCC2)n1 [Example 61],< 100,< 100
< 100,< 100,< 100,< 100,Cc1ccc(NC(=O)c2cc(C(C)(C)F)cnn2)cc1-c1cc(N[C@H](C)CO)nc(N2CCOCC2)c1 [Example 23],100 to 500,< 100
1000 to 10000,1000 to 10000,1000 to 10000,1000 to 10000,Cc1ccc(NC(=O)c2cc(C(F)(F)F)cnn2)cc1-c1cc(N2CCOCC2)cnn1 [Example 22],1000 to 10000,1000 to 10000
1000 to 10000,100 to 500,100 to 500,1000 to 10000,Cc1ccc(NC(=O)c2cc(C(F)(F)F)cnn2)cc1-c1ccnc(N2CCOC(C(F)(F)F)C2)c1 (stereo not drawn) [Example 8],500 to 1000,500 to 1000
< 100,< 100,< 100,< 100,Cc1ccc(NC(=O)c2cc(C(C)(F)F)cnn2)cc1-c1cc(NCCO)nc(N2CCOCC2)c1 [Example 64],< 100,< 100
100 to 500,100 to 500,100 to 500,< 100,Cc1ccc(NC(=O)c2cc(C3CC3)cnn2)cc1-c1cncc(N2CCOCC2)c1 [Example 24],100 to 500,100 to 500
100 to 500,< 100,< 100,100 to 500,CNc1cc(-c2cc(NC(=O)c3cc(C(F)(F)F)cnn3)ccc2C)cc(N2C[C@H]3C[C@@H]2CO3)n1 [Example 92],< 100,< 100
1000 to 10000,1000 to 10000,1000 to 10000,1000 to 10000,Cc1ccc(NC(=O)c2cc(Cl)cnn2)cc1-c1cc(N2CCOCC2)ncn1 [Example 74],1000 to 10000,1000 to 10000
1000 to 10000,1000 to 10000,1000 to 10000,500 to 1000,Cc1ccc(NC(=O)c2cc(C3CC3)cnn2)cc1-c1cncc(N2CCOCC2)n1 [Example 55],1000 to 10000,1000 to 10000
100 to 500,< 100,100 to 500,100 to 500,Cc1ccc(NC(=O)c2cc(C(F)(F)F)cnn2)cc1-c1cc(C2CC2)nc(N2CCOCC2)c1 [Example 3],< 100,100 to 500

# Further lines, the molecule ahead of its results:
SMILES,IC50 [1] [nM],IC50 (MiaPaca-2 cells) [nM],IC50 (HCT-116 cells) [nM],IC50 [2] [nM],IC50 (Pa16c cells) [nM],IC50 (HPAF-II cells) [nM]
Cc1ccc(NC(=O)c2cc(Cl)cnn2)cc1-c1cc(N[C@H](C)CO)nc(N2CCOCC2)c1 [Example 15],100 to 500,< 100,< 100,< 100,100 to 500,100 to 500
Cc1ccc(NC(=O)c2cc(C(F)(F)F)cnn2)cc1-c1nc(N[C@H](C)CO)cc(N2C[C@H]3C[C@@H]2CO3)n1 [Example 90],1000 to 10000,100 to 500,100 to 500,1000 to 10000,1000 to 10000,500 to 1000
Cc1ccc(NC(=O)c2cnc(Cl)nc2)cc1-c1cc(N[C@H](C)CO)nc(N2CCOCC2)c1 [Example 38],1000 to 10000,1000 to 10000,1000 to 10000,500 to 1000,1000 to 10000,1000 to 10000
Cc1ccc(NC(=O)c2cc(C(F)(F)F)cnn2)cc1-c1ccnc(N2C[C@@H]3C[C@H]2CO3)c1 [Example 87],100 to 500,< 100,< 100,100 to 500,< 100,< 100
"Cc1ccc(NC(=O)c2cncc(C(C)C)n2)cc1-c1cc(N[C@H](C)CO)nc(N2CCOCC2)c1 [Example 57, (R)—N-(3-(2-((1-hydroxypropan-2-yl)amino)-6-morpholinopyridin-4-yl)-4-methylphenyl)-6-isopropylpyrazine-2-carboxamide]",100 to 500,1000 to 10000,1000 to 10000,100 to 500,1000 to 10000,1000 to 10000
Cc1ccc(NC(=O)c2cnc(C(F)(F)F)nc2)cc1-c1cc(N[C@H](C)CO)nc(N2CCOCC2)c1 [Example 12],500 to 1000,500 to 1000,1000 to 10000,100 to 500,1000 to 10000,1000 to 10000
Cc1ccc(NC(=O)c2cc(C(F)(F)F)cnn2)cc1-c1cc(N[C@H](C)CO)nc(N2C[C@H]3C[C@@H]2CO3)c1 [Example 93],100 to 500,< 100,< 100,100 to 500,< 100,< 100
Cc1ccc(NC(=O)c2cc(C#N)cnn2)cc1-c1cc(N[C@H](C)CO)nc(N2CCOCC2)c1 [Example 81],500 to 1000,< 100,< 100,100 to 500,< 100,< 100
Cc1ccc(NC(=O)c2cc(Br)cnn2)cc1-c1cc(OCCO)nc(N2CCOCC2)c1 [Example 78],100 to 500,500 to 1000,500 to 1000,< 100,1000 to 10000,1000 to 10000
CNc1cc(-c2cc(NC(=O)c3cc(C(F)(F)F)cnn3)ccc2C)nc(N2C[C@H]3C[C@@H]2CO3)n1 [Example 94],1000 to 10000,< 100,< 100,1000 to 10000,< 100,< 100
